Reference: the supplement of paper PMC10307832

Experiments:
Test in all cases: relative viability (nuclei count vs DMSO), 5 days (fraction); higher = more cells survive
Idelalisib + Pictilisib = compound: CC[C@H](Nc1ncnc2[nH]cnc12)c1nc2cccc(F)c2c(=O)n1-c1ccccc1 [Idelalisib] + CS(=O)(=O)N1CCN(Cc2cc3nc(-c4cccc5[nH]ncc45)nc(N4CCOCC4)c3s2)CC1 [Pictilisib] (partner 1 µM)
Outline: (§1)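 Each reported value is a median over duplicate plates. It expresses relative viability: treated-well nuclei count divided by vehicle-well nuclei count. Lung cancer cell lines in 1536-well plates were dosed by pin tool a day after seeding, alone with one drug or with a fixed anchor-drug dose plus five library-drug doses (not always all listed) in √10 steps, and nuclei were counted after 5 days.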

Pemetrexed + Bortezomib = compound: Nc1nc2[nH]cc(CCc3ccc(C(=O)N[C@@H](CCC(=O)O)C(=O)O)cc3)c2c(=O)[nH]1 [Pemetrexed] + CC(C)C[C@H](NC(=O)[C@H](Cc1ccccc1)NC(=O)c1cnccn1)B(O)O [Bortezomib] (partner 0.002 µM)
Outline: as §1

Pemetrexed + Phenformin = compound: Nc1nc2[nH]cc(CCc3ccc(C(=O)N[C@@H](CCC(=O)O)C(=O)O)cc3)c2c(=O)[nH]1 [Pemetrexed] + N=C(N)NC(=N)NCCc1ccccc1 [Phenformin] (partner 250 µM)
Outline: as §1

Pemetrexed + AZD7762 = compound: Nc1nc2[nH]cc(CCc3ccc(C(=O)N[C@@H](CCC(=O)O)C(=O)O)cc3)c2c(=O)[nH]1 [Pemetrexed] + NC(=O)Nc1cc(-c2cccc(F)c2)sc1C(=O)N[C@H]1CCCNC1 [AZD7762] (partner 0.2 µM)
Outline: as §1

Row | Cell Line | relative viability (Idelalisib + Pictilisib; first compound 0.04 µM) | relative viability (Idelalisib + Pictilisib; first compound 0.1265 µM) | relative viability (Idelalisib + Pictilisib; first compound 0.4 µM) | relative viability (Idelalisib + Pictilisib; first compound 1.265 µM) | relative viability (Idelalisib + Pictilisib; first compound 4 µM) | relative viability (Pemetrexed + Bortezomib; first compound 0.002 µM) | relative viability (Pemetrexed + Bortezomib; first compound 0.006325 µM) | relative viability (Pemetrexed + Bortezomib; first compound 0.02 µM) | relative viability (Pemetrexed + Bortezomib; first compound 0.06325 µM) | relative viability (Pemetrexed + Bortezomib; first compound 0.2 µM) | relative viability (Pemetrexed + Phenformin; first compound 0.002 µM) | relative viability (Pemetrexed + Phenformin; first compound 0.006325 µM) | relative viability (Pemetrexed + Phenformin; first compound 0.02 µM) | relative viability (Pemetrexed + Phenformin; first compound 0.06325 µM) | relative viability (Pemetrexed + Phenformin; first compound 0.2 µM) | relative viability (Pemetrexed + AZD7762; first compound 0.002 µM) | relative viability (Pemetrexed + AZD7762; first compound 0.006325 µM) | relative viability (Pemetrexed + AZD7762; first compound 0.02 µM) | relative viability (Pemetrexed + AZD7762; first compound 0.06325 µM) | relative viability (Pemetrexed + AZD7762; first compound 0.2 µM)
1 | IA-LM | 0.275 | 0.344 | 0.358 | 0.445 | 0.296 | 0.81 | 0.82 | 0.943 | 0.695 | 0.641 |  |  |  |  |  |  |  |  |  | 
2 | LK-2 | 0.545 | 0.431 |  | 0.534 | 0.586 |  |  |  |  |  | 0.51 | 0.475 | 0.883 | 0.376 | 0.267 | 0.504 | 0.426 | 0.494 | 0.245 | 0.164
3 | NCI-H358 | 0.359 | 0.355 | 0.281 | 0.342 | 0.355 |  |  |  |  |  | 0.334 | 0.359 | 0.31 | 0.166 | 0.132 | 0.55 | 0.321 | 0.539 | 0.338 | 0.266
4 | NCI-H520 | 0.394 | 0.308 | 0.283 | 0.294 | 0.309 | 0.29 | 0.64 | 0.542 | 0.526 | 0.395 | 0.567 | 0.756 | 0.756 | 0.65 | 0.501 |  |  |  |  | 
5 | NCI-H522 |  |  |  |  |  |  |  |  |  |  | 0.739 | 0.593 | 0.77 | 0.692 | 0.583 | 0.999 | 0.806 | 1.05 | 0.91 | 0.805
6 | NCI-H661 | 0.426 | 0.37 | 0.446 | 0.468 | 0.456 | 0.945 | 0.88 | 0.891 | 0.727 | 0.648 | 0.288 | 0.28 | 0.286 | 0.276 | 0.273 |  |  |  |  | 
7 | NCI-H1299 | 0.764 | 0.758 | 0.833 | 0.973 | 0.606 | 1.02 | 1.01 | 1.03 | 1.03 | 0.987 |  |  |  |  |  |  |  |  |  | 
8 | NCI-H1395 | 0.714 | 0.525 | 0.564 | 0.613 | 0.557 |  |  |  |  |  | 0.4 | 0.472 | 0.521 | 0.411 | 0.447 | 0.387 | 0.373 | 0.421 | 0.415 | 0.38
9 | NCI-H1563 | 0.656 | 0.663 | 0.583 | 0.658 | 0.678 | 0.784 | 0.869 | 0.978 | 0.855 | 0.932 | 0.745 | 0.649 | 0.67 | 0.651 | 0.64 |  |  |  |  | 
10 | NCI-H1623 |  |  |  |  |  |  |  |  |  |  | 0.575 | 0.588 | 0.564 | 0.627 | 0.598 |  |  |  |  | 
11 | NCI-H1648 |  |  |  |  |  |  |  |  |  |  |  |  |  |  |  | 0.671 | 0.703 | 0.831 | 0.686 | 0.623
12 | NCI-H1650 | 0.668 | 0.608 | 0.553 | 0.645 | 0.593 | 0.208 | 0.208 | 0.204 | 0.22 | 0.2 | 0.415 | 0.39 | 0.408 | 0.309 | 0.231 |  |  |  |  | 
13 | NCI-H1703 | 0.229 | 0.237 | 0.23 | 0.247 | 0.197 | 0.277 | 0.224 | 0.605 | 0.248 | 0.271 |  |  |  |  |  | 0.127 | 0.133 | 0.127 | 0.12 | 0.146
14 | NCI-H1793 | 0.306 | 0.355 | 0.307 | 0.312 | 0.296 |  |  |  |  |  | 0.436 | 0.361 | 0.42 | 0.349 | 0.405 | 0.468 | 0.404 | 0.966 | 0.446 | 0.509
15 | NCI-H1944 | 0.374 | 0.357 | 0.308 | 0.376 | 0.33 |  |  |  |  |  |  | 0.229 | 0.207 | 0.189 | 0.189 | 0.48 | 0.432 | 0.582 | 0.506 | 0.531
16 | NCI-H2009 | 0.85 | 0.767 | 0.798 | 0.84 | 0.768 | 0.911 | 0.954 | 1.15 | 0.974 | 1 | 0.466 | 0.494 | 0.539 | 0.47 | 0.477 |  |  |  |  | 
17 | NCI-H2023 | 0.221 | 0.279 | 0.153 | 0.241 | 0.266 | 0.519 | 0.912 | 1.04 | 0.815 | 0.304 | 0.343 | 0.397 | 0.473 | 0.354 | 0.203 |  |  |  |  | 
18 | NCI-H2170 | 0.313 | 0.312 | 0.228 | 0.295 | 0.29 |  |  |  |  |  | 0.449 | 0.443 | 0.424 | 0.42 | 0.405 | 0.873 | 0.916 | 0.864 | 0.774 | 0.357
19 | NCI-H2228 | 0.383 | 0.367 | 0.355 | 0.396 | 0.421 | 0.934 | 0.918 | 1.07 | 0.754 | 0.339 | 0.308 |  | 0.268 | 0.2 | 0.184 |  |  |  |  | 
20 | NCI-H2342 |  |  |  |  |  |  |  |  |  |  | 0.501 | 0.6 | 0.526 | 0.54 | 0.618 | 0.354 | 0.492 | 0.392 | 0.524 | 0.443
21 | SK-LU-1 | 0.553 | 0.668 | 0.532 | 0.574 | 0.552 | 0.949 | 1.21 | 1.3 | 1.08 | 1.31 | 0.497 | 0.497 | 0.626 | 0.547 | 0.534 |  |  |  |  | 
22 | SK-MES-1 | 0.377 | 0.365 | 0.355 | 0.414 | 0.36 |  |  |  |  |  | 0.647 | 0.638 | 0.705 | 0.642 | 0.614 |  |  |  |  | 
23 | SW 900 |  |  |  |  |  |  |  |  |  |  | 0.759 | 0.578 | 0.763 | 0.548 | 0.477 | 0.692 | 0.599 | 0.609 | 0.497 | 0.376
24 | SW 1573 | 0.547 | 0.523 | 0.513 | 0.668 | 0.393 | 1.1 | 0.881 | 1.11 | 0.896 | 1.04 | 0.401 | 0.348 | 0.447 | 0.353 | 0.388 |  |  |  |  | 
